# Test results from patent publication US20250270190A1, “KIT INHIBITORS” (BLUEPRINT MEDICINES CORPORATION, priority 2022, published 2025).
# Molecular target: T1, c-kit autophosphorylation (Phospho c-Kit Tyr721) in HMC 1.1 (exon 11/13) cells, V654A (Homo sapiens, UniProt P10721, V560G/V654A)
# T1 construct: endogenous in cells; host or cells: HMC 1.1 (exon 11/13) cells
# Assay: pKIT Meso Scale Discovery (MSD) assay, inhibition of autophosphorylation of KIT, HMC1.1_V654A
# Type: cell-based
# Settings: Table 1, cell line not named for Table 1, b1056 names pKIT HMC1.1_V654A, read-out: Code (IC50 for inhibition of autophosphorylation of KIT, pKIT MSD assay)
# Outline: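 HMC1.1 cells were serum-starved for 4 h in serum-free, iron-free, phenol red-free IMDM, then treated with compound in dose-response for 90 min at 37 °C. Staurosporine and DMSO served as controls. Lysates were analysed by MSD electrochemiluminescence immunoassay for phospho-c-Kit Tyr721, and % inhibition of autophosphorylation was derived.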
# T1 sequence (P10721 26-976 V560G/V654A): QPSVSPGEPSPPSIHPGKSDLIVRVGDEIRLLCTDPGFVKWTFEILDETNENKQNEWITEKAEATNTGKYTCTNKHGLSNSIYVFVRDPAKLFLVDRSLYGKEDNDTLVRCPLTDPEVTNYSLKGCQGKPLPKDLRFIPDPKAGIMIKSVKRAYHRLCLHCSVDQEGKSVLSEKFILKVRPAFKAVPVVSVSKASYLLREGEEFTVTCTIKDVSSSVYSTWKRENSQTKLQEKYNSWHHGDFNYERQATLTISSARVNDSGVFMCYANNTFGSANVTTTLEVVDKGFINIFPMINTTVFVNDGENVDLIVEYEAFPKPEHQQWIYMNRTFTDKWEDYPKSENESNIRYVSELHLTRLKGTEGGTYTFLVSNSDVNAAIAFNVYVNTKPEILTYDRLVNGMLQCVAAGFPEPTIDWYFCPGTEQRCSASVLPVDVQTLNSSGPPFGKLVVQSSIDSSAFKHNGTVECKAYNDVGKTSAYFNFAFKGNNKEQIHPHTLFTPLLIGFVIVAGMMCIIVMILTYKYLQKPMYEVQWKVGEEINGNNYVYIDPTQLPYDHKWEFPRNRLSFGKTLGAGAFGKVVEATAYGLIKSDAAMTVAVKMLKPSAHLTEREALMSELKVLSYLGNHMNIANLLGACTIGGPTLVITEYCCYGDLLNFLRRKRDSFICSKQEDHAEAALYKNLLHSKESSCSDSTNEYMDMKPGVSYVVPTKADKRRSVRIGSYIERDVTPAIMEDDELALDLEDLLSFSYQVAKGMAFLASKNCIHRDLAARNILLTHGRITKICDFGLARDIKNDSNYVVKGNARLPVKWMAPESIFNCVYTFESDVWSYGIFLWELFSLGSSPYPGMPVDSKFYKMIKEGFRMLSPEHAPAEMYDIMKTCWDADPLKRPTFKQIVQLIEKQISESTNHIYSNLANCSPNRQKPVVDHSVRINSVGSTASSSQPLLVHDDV
smiles,measurement,value
"COc1cc(Nc2cc(N)nc(C(F)F)n2)ncc1-c1cnn(C[C@@H]2CCN2)c1 (single isomer, unassigned) [Compound 102, (S)-N4-(5-(1-(azetidin-2-ylmethyl)-1H-pyrazol-4-yl)-4-methoxypyridin-2-yl)-2-(difluoromethyl)pyrimidine-4,6-diamine or (R)-N4-(5-(1-(azetidin-2-ylmethyl)-1H-pyrazol-4-yl)-4-methoxypyridin-2-yl)-2-(difluoromethyl)pyrimidine-4,6-diamine]",IC50,< 10 nM
"COc1cc(Nc2cc(N)nc(C(F)F)n2)ncc1-c1cnn(CCN(C)CC(F)(F)F)c1 [Compound 199, 2-(difluoromethyl)-N4-(4-methoxy-5-(1-(2-(methyl(2,2,2-trifluoroethyl)amino)ethyl)-1H-pyrazol-4-yl)pyridin-2-yl)pyrimidine-4,6-diamine]",IC50,< 10 nM
"COc1cc(Nc2cc(N)nc(C(F)F)n2)ncc1-c1cnn(C2CC2)c1 [Compound 52, N4-(5-(1-cyclopropyl-1H-pyrazol-4-yl)-4-methoxypyridin-2-yl)-2-(difluoromethyl)pyrimidine-4,6-diamine]",IC50,< 10 nM
"COc1cc(Nc2cc(N)nc(C(F)F)n2)ncc1-c1cnn(C[C@H]2CCN2)c1 (single isomer, unassigned) [Compound 101, (R)-N4-(5-(1-(azetidin-2-ylmethyl)-1H-pyrazol-4-yl)-4-methoxypyridin-2-yl)-2-(difluoromethyl)pyrimidine-4,6-diamine or (S)-N4-(5-(1-(azetidin-2-ylmethyl)-1H-pyrazol-4-yl)-4-methoxypyridin-2-yl)-2-(difluoromethyl)pyrimidine-4,6-diamine]",IC50,> 40 nM
"C[C@@H](CF)Nc1cc(Nc2cc(N)nc(C(F)F)n2)ncc1C(=O)NC1CC1 [Compound 90, (S)-6-((6-amino-2-(difluoromethyl)pyrimidin-4-yl)amino)-N-cyclopropyl-4-((1-fluoropropan-2-yl)amino)nicotinamide]",IC50,< 10 nM
"CNC(=O)c1cnc(Nc2cc(N)nc([C@H](C)F)n2)cc1NC [Compound 3, (S)-6-((6-amino-2-(1-fluoroethyl)pyrimidin-4-yl)amino)-N-methyl-4-(methylamino)nicotinamide]",IC50,10 to 40 nM
"Cn1cc(-c2cnc(Nc3cc(N)nc(C(F)F)n3)cc2OC(F)F)cn1 [Compound 69, N4-(4-(difluoromethoxy)-5-(1-methyl-1H-pyrazol-4-yl)pyridin-2-yl)-2-(difluoromethyl)pyrimidine-4,6-diamine]",IC50,10 to 40 nM
"CN1CC(n2cc(-c3cnc(Nc4cc(N)nc(C(F)F)n4)cc3OC3COC3)cn2)C1 [Compound 183, 2-(difluoromethyl)-N4-(5-(1-(1-methylazetidin-3-yl)-1H-pyrazol-4-yl)-4-(oxetan-3-yloxy)pyridin-2-yl)pyrimidine-4,6-diamine]",IC50,> 40 nM
"CCNC(=O)c1cnc(Nc2cc(N)nc(C(F)F)n2)cc1N[C@H](C)CF [Compound 72, (R)-6-((6-amino-2-(difluoromethyl)pyrimidin-4-yl)amino)-N-ethyl-4-((1-fluoropropan-2-yl)amino)nicotinamide]",IC50,< 10 nM
"Nc1cc(Nc2cc(OC3CC3)c(-c3cnn([C@@H]4CCOC4)c3)cn2)nc(C(F)F)n1 (single isomer, unassigned) [Compound 165, (R)—N4-(4-cyclopropoxy-5-(1-(tetrahydrofuran-3-yl)-1H-pyrazol-4-yl)pyridin-2-yl)-2-(difluoromethyl)pyrimidine-4,6-diamine or (S)—N4-(4-cyclopropoxy-5-(1-(tetrahydrofuran-3-yl)-1H-pyrazol-4-yl)pyridin-2-yl)-2-(difluoromethyl)pyrimidine-4,6-diamine]",IC50,< 10 nM
"CNC(=O)c1cnc(Nc2cc(N)nc(CF)n2)cc1N[C@H](C)C(F)F [Compound 47, (R)-6-((6-amino-2-(fluoromethyl)pyrimidin-4-yl)amino)-4-((1,1-difluoropropan-2-yl)amino)-N-methylnicotinamide]",IC50,< 10 nM
"CNC(C)(C)Cn1cc(-c2cnc(Nc3cc(N)nc(C(F)F)n3)cc2OC2CC2)cn1 [Compound 184, N4-(4-cyclopropoxy-5-(1-(2-methyl-2-(methylamino)propyl)-1H-pyrazol-4-yl)pyridin-2-yl)-2-(difluoromethyl)pyrimidine-4,6-diamine]",IC50,< 10 nM
"COc1cc(Nc2cc(N)nc(CF)n2)ncc1-c1cnn(C2CNC2)c1 [Compound 50, N4-(5-(1-(azetidin-3-yl)-1H-pyrazol-4-yl)-4-methoxypyridin-2-yl)-2-(fluoromethyl)pyrimidine-4,6-diamine]",IC50,> 40 nM
"[2H]C([2H])([2H])NC(=O)c1cnc(Nc2cc(N)nc(C(F)F)n2)cc1NC1CC1 [Compound 31, 6-((6-amino-2-(difluoromethyl)pyrimidin-4-yl)amino)-4-(cyclopropylamino)-N-(methyl-d3)nicotinamide]",IC50,< 10 nM
"CCOc1cc(Nc2cc(N)nc(C(F)F)n2)ncc1-c1cnn(CCNC)c1 [Compound 119, 2-(difluoromethyl)-N4-(4-ethoxy-5-(1-(2-(methylamino)ethyl)-1H-pyrazol-4-yl)pyridin-2-yl)pyrimidine-4,6-diamine]",IC50,< 10 nM
"Cn1cc(-c2cnc(Nc3cc(N)nc(C(F)F)n3)cc2OCC(F)(F)F)cn1 [Compound 132, 2-(difluoromethyl)-N4-(5-(1-methyl-1H-pyrazol-4-yl)-4-(2,2,2-trifluoroethoxy)pyridin-2-yl)pyrimidine-4,6-diamine]",IC50,< 10 nM
"CNC(=O)c1cnc(Nc2cc(N)nc(C(F)F)n2)cc1NCCC(C)C [Compound 66, 6-((6-amino-2-(difluoromethyl)pyrimidin-4-yl)amino)-4-(isopentylamino)-N-methylnicotinamide]",IC50,10 to 40 nM
"CNC(=O)c1cnc(Nc2cc(N)nc(CF)n2)cc1NC(C)CF (single isomer, unassigned) [Compound 27, (S)-6-((6-amino-2-(fluoromethyl)pyrimidin-4-yl)amino)-4-((1-fluoropropan-2-yl)amino)-N-methylnicotinamide or (R)-6-((6-amino-2-(fluoromethyl)pyrimidin-4-yl)amino)-4-((1-fluoropropan-2-yl)amino)-N-methylnicotinamide]",IC50,10 to 40 nM
"CN[C@H](C)Cn1cc(-c2cnc(Nc3cc(N)nc(C(F)F)n3)cc2OC)cn1 (single isomer, unassigned) [Compound 118, (R)-2-(difluoromethyl)-N4-(4-methoxy-5-(1-(2-(methylamino)propyl)-1H-pyrazol-4-yl)pyridin-2-yl)pyrimidine-4,6-diamine or (S)-2-(difluoromethyl)-N4-(4-methoxy-5-(1-(2-(methylamino)propyl)-1H-pyrazol-4-yl)pyridin-2-yl)pyrimidine-4,6-diamine]",IC50,10 to 40 nM
"Nc1cc(Nc2cc(NC3CC3)c(C(=O)NCc3ccccn3)cn2)nc(C(F)F)n1 [Compound 153, 6-((6-amino-2-(difluoromethyl)pyrimidin-4-yl)amino)-4-(cyclopropylamino)-N-(pyridin-2-ylmethyl)nicotinamide]",IC50,< 10 nM
"CCOc1cc(Nc2cc(N)nc(C(F)F)n2)ncc1-c1cnn(C)c1 [Compound 34, 2-(difluoromethyl)-N4-(4-ethoxy-5-(1-methyl-1H-pyrazol-4-yl)pyridin-2-yl)pyrimidine-4,6-diamine]",IC50,< 10 nM
"CCNC(=O)c1cnc(Nc2cc(N)nc(C(F)F)n2)cc1NC [Compound 13, 6-((6-amino-2-(difluoromethyl)pyrimidin-4-yl)amino)-N-ethyl-4-(methylamino)nicotinamide]",IC50,10 to 40 nM
"CC(C)(O)Cn1cc(-c2cnc(Nc3cc(N)nc(C(F)F)n3)cc2OC(F)(F)F)cn1 [Compound 198, 1-(4-(6-((6-amino-2-(difluoromethyl)pyrimidin-4-yl)amino)-4-(trifluoromethoxy)pyridin-3-yl)-1H-pyrazol-1-yl)-2-methylpropan-2-ol]",IC50,< 10 nM
"CNC(C)(C)Cn1cc(-c2cnc(Nc3cc(N)nc(C(F)F)n3)cc2OC(F)(F)F)cn1 [Compound 200, 2-(difluoromethyl)-N4-(5-(1-(2-methyl-2-(methylamino)propyl)-1H-pyrazol-4-yl)-4-(trifluoromethoxy)pyridin-2-yl)pyrimidine-4,6-diamine]",IC50,< 10 nM
"CN1CCC(n2cc(-c3cnc(Nc4cc(N)nc(C(F)F)n4)cc3OC(F)F)cn2)C1 (centres unmarked) [Compound 192, N4-(4-(difluoromethoxy)-5-(1-(1-methylpyrrolidin-3-yl)-1H-pyrazol-4-yl)pyridin-2-yl)-2-(difluoromethyl)pyrimidine-4,6-diamine]",IC50,< 10 nM
"CNC(C)(C)Cn1cc(-c2cnc(Nc3cc(N)nc(C(F)F)n3)cc2OC(F)F)cn1 [Compound 193, N4-(4-(difluoromethoxy)-5-(1-(2-methyl-2-(methylamino)propyl)-1H-pyrazol-4-yl)pyridin-2-yl)-2-(difluoromethyl)pyrimidine-4,6-diamine]",IC50,< 10 nM
"Nc1cc(Nc2cc(NC3CC3)c(C(=O)NC34CC(CO)(C3)C4)cn2)nc(C(F)F)n1 [Compound 174, 6-((6-amino-2-(difluoromethyl)pyrimidin-4-yl)amino)-4-(cyclopropylamino)-N-(3-(hydroxymethyl)bicyclo[1.1.1]pentan-1-yl)nicotinamide]",IC50,< 10 nM
"CCC(C)CNc1cc(Nc2cc(N)nc(C(F)F)n2)ncc1C(=O)NC (centres unmarked) [Compound 65, 6-((6-amino-2-(difluoromethyl)pyrimidin-4-yl)amino)-N-methyl-4-((2-methylbutyl)amino)nicotinamide]",IC50,10 to 40 nM
"Cn1cc(-c2cnc(Nc3cc(N)nc(C(F)F)n3)cc2OCCCO)cn1 [Compound 83, 3-((2-((6-amino-2-(difluoromethyl)pyrimidin-4-yl)amino)-5-(1-methyl-1H-pyrazol-4-yl)pyridin-4-yl)oxy)propan-1-ol]",IC50,10 to 40 nM
